This note sets out measurements from ChEMBL document CHEMBL1201862, “PubChem BioAssay data set” (2004).

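These data come from cells grown in 96-well plates and exposed to compound for 48 hours at five concentrations. The concentration for 50% growth inhibition is given as GI50.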 The source made the active and inactive calls. No stated cut-off is given here; in the data, active = GI50 up to about 1.1 µM and inactive = higher.

Some test systems named below: SNB-78; KM-20L2; LXFL 529; XF498; DMS-273; HOP-18; BT-549; T47D.
Experiment in all cases: NCI anticancer screen, dose series, 48 h

As for `CC(=O)/C=C1\CC(=O)Nc2ccccc2N1`, the GI50 with SNB-78, with KM-20L2 and in the assay with LXFL 529 was > 100 µM (inactive) in each case.
For `C=CCN1COc2c(cc3c4c(cccc24)C(=O)O3)C1`, the GI50 is 20.2 µM (inactive) with XF498; 24.3 µM (inactive) with KM-20L2; 38.6 µM (inactive) with DMS-273; 18.2 µM (inactive) in the assay on LXFL 529; > 100 µM (inactive) with HOP-18.
Take `NC(CCc1nc(-c2ccccc2)cs1)C(=O)O` (configuration not stated): the GI50 with SNB-78, with DMS-273, in the assay on LXFL 529 and in the assay on HOP-18 was > 100 µM (inactive) in each case.
Turning to `Cc1ccc2c(c1)CNc1ccc(C)cc1CN2`, the GI50 in the assay on XF498, in the assay on SNB-78, in the assay with DMS-273, in the assay with LXFL 529 and with HOP-18 was > 100 µM (inactive) in each case.
On to `CCOC(=O)c1oc2ccc(OC)c3c2c1CCC3`, for which the GI50 in the assay on XF498 is > 100 µM (inactive); in the assay with SNB-78 it was > 100 µM (inactive); in the assay with DMS-273 it was > 100 µM (inactive); in the assay with LXFL 529, 65.6 µM (inactive).
`Cc1nc2c3c(ccc2nc1O)C(=O)c1ccccc1C3=O`: the GI50 with XF498 was > 100 µM (inactive); in the assay with KM-20L2 it was > 100 µM (inactive); in the assay with LXFL 529, 70 µM (inactive); with HOP-18, 66.7 µM (inactive).
`CC(C)=CCOc1ccc(-c2coc3cc4c(c(O)c3c2=O)C=CC(C)(C)O4)cc1`: the GI50 with XF498 was 15.9 µM (inactive); in the assay with SNB-78, 59.3 µM (inactive); in the assay with KM-20L2, > 100 µM (inactive); in the assay on LXFL 529, 20.9 µM (inactive).
For `COC1=CC(=O)[C@H]2[C@H](C)C(c3ccccc3)[C@@]2(C)C1=O` (some centres not stated), the GI50 in the assay on XF498, in the assay with SNB-78, in the assay on DMS-273 and in the assay with LXFL 529 was > 100 µM (inactive) in each case.
As to `CC(C)N(C(=O)C12C3C4C5C3C1(C(=O)N(C(C)C)C(C)C)C5C42)C(C)C` (configuration not stated), the GI50 in the assay on XF498 is > 100 µM (inactive); in the assay with SNB-78, > 100 µM (inactive); in the assay on KM-20L2, > 100 µM (inactive); in the assay with DMS-273, > 41.7 µM (inactive); in the assay with LXFL 529 it was > 80.4 µM (inactive); in the assay on HOP-18, > 100 µM (inactive).
As for `O=C1C(Cl)C(c2ccccc2)N1n1cnc2ccccc2c1=O` (configuration not stated), the GI50 in the assay on XF498 was > 100 µM (inactive); in the assay with SNB-78, > 100 µM (inactive); in the assay with KM-20L2 it was > 100 µM (inactive); in the assay on DMS-273, > 100 µM (inactive); in the assay on LXFL 529, > 100 µM (inactive); in the assay on HOP-18 it was 26.5 µM (inactive).
For `CC(/C=C/C=C\C=C\C=C(/C)C(=O)NC(C)CO)=C\C(C)C(O)/C(C)=C/C(C)CCc1ccccc1` (configuration not stated), the GI50 was 7.71 µM (inactive) in the assay on XF498; 8.04 µM (inactive) with SNB-78; 11.1 µM (inactive) in the assay on KM-20L2; 1.87 µM (inactive) in the assay with DMS-273; 15.2 µM (inactive) with BT-549; 3.61 µM (inactive) in the assay with T47D. Further, the GI50 in the assay on LXFL 529 is 3.18 µM (inactive); in the assay on HOP-18, 10.8 µM (inactive).
With `CC(=O)OC1CC2C(C)(C)C(=O)C=C[C@]2(C)C2CCC3(C)C(c4ccoc4)[C@@H](O)[C@H]4O[C@]43[C@]12C` (some centres not stated), the GI50 is 25.6 µM (inactive) in the assay with SNB-78; 18.5 µM (inactive) in the assay with KM-20L2; 22.1 µM (inactive) in the assay with DMS-273; 18.5 µM (inactive) in the assay on LXFL 529; 21.6 µM (inactive) in the assay on HOP-18.
Regarding `C=CCc1cc(-c2cc(CC=C)c(O)c(CNCCCl)c2)cc(CNCCCl)c1O`, the figures for the GI50 in the assay with SNB-78, in the assay with KM-20L2 and in the assay with LXFL 529 were 39.3 µM (inactive), 17.5 µM (inactive) and 15.1 µM (inactive), respectively.
Consider `C=C1C[C@@H](O)[C@@H](Br)C(C)(C)[C@@]12C=CC(=O)CC2`, for which the GI50 in the assay with BT-549 and in the assay on T47D was > 100 µM (inactive) in each case.
Regarding `CC(C)=CC1CC(C)C2(CCC3(C)CC4C(C(=O)CC4(C)O)/C(C=O)=C\CC32)O1` (configuration not stated), the figures for the GI50 with BT-549 and with T47D were 0.177 µM (active) and 0.0574 µM (active), respectively.
Take `COC(=O)c1cc(NC(=O)Cc2c[nH]c3ccccc23)cn1C`: the figures for the GI50 in the assay on BT-549 and in the assay on T47D were 57.5 µM (inactive) and > 100 µM (inactive), respectively.
